# Measurements taken from US10202354B2, “Therapeutic compounds and uses thereof” (GENENTECH, INC., priority 2015, dated 2019).
# Target: Full length KDM2B (Homo sapiens (Human), UniProt Q8NHM5)
# Assay: KDM2B TR-FRET Assay for Determining Inhibitor IC50
# Type: biochemical
# Details: TR-FRET (HTRF), biotin-H3K36me2 peptide substrate
# Source text: KDM2B TR-FRET Assay for Determining Inhibitor IC50
# The KDM2B TR-FRET Assay described above represents an additional embodiment of the invention.
# Chain of Full length KDM2B (Q8NHM5 whole entry): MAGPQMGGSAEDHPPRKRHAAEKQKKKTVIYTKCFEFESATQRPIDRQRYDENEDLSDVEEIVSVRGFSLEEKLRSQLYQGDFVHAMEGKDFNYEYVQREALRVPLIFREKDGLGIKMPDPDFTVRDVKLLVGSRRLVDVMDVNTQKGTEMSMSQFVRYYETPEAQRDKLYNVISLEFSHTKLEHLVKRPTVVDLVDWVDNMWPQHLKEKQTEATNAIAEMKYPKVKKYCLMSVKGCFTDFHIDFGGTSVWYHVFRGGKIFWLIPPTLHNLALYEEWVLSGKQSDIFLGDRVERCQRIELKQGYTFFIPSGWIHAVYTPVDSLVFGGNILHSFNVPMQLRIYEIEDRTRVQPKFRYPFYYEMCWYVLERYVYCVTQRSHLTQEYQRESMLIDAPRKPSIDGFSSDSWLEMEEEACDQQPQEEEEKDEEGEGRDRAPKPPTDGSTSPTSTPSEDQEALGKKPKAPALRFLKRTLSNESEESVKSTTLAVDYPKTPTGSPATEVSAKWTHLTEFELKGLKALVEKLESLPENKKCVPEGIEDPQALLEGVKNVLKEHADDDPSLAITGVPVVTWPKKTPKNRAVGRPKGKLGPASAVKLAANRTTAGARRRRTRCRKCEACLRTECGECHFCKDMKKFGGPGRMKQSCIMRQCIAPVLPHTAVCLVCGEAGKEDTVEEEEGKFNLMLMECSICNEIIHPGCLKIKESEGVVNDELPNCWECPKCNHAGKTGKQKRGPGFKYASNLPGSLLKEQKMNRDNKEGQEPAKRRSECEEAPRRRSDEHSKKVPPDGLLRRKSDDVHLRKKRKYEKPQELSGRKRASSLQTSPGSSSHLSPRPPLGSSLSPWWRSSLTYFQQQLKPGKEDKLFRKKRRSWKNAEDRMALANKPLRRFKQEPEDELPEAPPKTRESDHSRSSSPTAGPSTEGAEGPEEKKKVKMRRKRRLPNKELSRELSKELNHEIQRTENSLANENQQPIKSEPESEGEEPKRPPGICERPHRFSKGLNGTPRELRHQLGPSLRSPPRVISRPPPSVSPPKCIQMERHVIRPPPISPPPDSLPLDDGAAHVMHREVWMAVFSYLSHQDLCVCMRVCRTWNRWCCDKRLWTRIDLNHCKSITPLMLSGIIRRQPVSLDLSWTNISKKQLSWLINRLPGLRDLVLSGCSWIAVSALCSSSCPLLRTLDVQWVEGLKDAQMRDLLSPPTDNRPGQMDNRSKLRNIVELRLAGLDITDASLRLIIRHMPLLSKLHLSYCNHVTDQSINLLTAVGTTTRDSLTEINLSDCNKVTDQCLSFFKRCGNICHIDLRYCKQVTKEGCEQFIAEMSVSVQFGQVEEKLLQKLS
row,SMILES,IC50 [nM]
1,"O=S(=O)(c1ccc(Cl)c(Cl)c1)N1CCN=C1N1CCN(C2CCC2)CC1 [Example 67, 1-cyclobutyl-4-[1-(3,4-dichlorophenyl)sulfonyl-4,5-dihydromidazol-2-yl]piperazine]",0.136
2,"O=S(=O)(c1ccc(-c2cncnc2)cc1)N1CCN=C1N1CCN(C2CCC2)CC1 [Example 30, 5-[4-[[2-(4-cyclobutylpiperazin-1-yl)-4,5-dihydroimidazol-1-yl]sulfonyl]phenyl]pyrimidine]",0.06
3,"CCN1CCN(C2=NCCN2S(=O)(=O)c2ccccc2OC(F)(F)F)CC1 [Example 33, 1-ethyl-4-[1-[2-(trifluoromethoxy)phenyl]sulfonyl-4,5-dihydroimidazol-2-yl]piperazine]",8.51
4,"O=S(=O)(c1ccc(-c2cccc(C(F)(F)F)c2)cc1)N1CCN=C1N1CCN(C2CCC2)CC1 [Example 11, 1-cyclobutyl-4-[1-[4-[3-(trifluoromethyl)phenyl]phenyl]sulfonyl-4,5-dihydroimidazol-2-yl]piperazine]",0.134
5,"CCN1CCN(C2=NCCN2S(=O)(=O)c2c(Cl)cccc2Cl)CC1 [Example 118, 1-[1-(2,6-dichlorophenyl)sulfonyl-4,5-dihydroimidazol-2-yl]-4-ethyl-piperazine]",1.02
6,"CCN1CCN(C2=NCCN2S(=O)(=O)c2ccc(OC(F)F)cc2)CC1 [Example 105, 1-[1-[4-(difluoromethoxy)phenyl]sulfonyl-4,5-dihydroimidazol-2-yl]-4-ethyl-piperazine]",3.31
7,"CCN1CCN(C2=NCCN2S(=O)(=O)c2ccc(-c3ccc(F)cc3)cc2)CC1 [Example 98, 1-ethyl-4-[1-[4-(4-fluorophenyl)phenyl]sulfonyl-4,5-dihydroimidazol-2-yl]piperazine]",1.02
8,"O=S(=O)(c1ccc(C2CC2)cc1)N1CCN=C1N1CCN(C2CCC2)CC1 [Example 34, 1-cyclobutyl-4-[1-(4-cyclopropylphenyl)sulfonyl-4,5-dihydroimidazol-2-yl]piperazine]",0.058
9,"N#Cc1ccccc1-c1ccc(S(=O)(=O)N2CCN=C2N2CCN(C3CCC3)CC2)cc1 [Example 1, 2-[4-[[2-(4-cyclobutylpiperazin-1-yl)-4,5-dihydroimidazol-1-yl]sulfonyl]phenyl]benzonitrile]",0.053
10,"CC(C)c1ccc(S(=O)(=O)N2CCN=C2N2CCN(C3CCC3)C(C)C2)cc1 (stereo not shown) [Example 37, 1-cyclobutyl-4-[1-(4-isopropylphenyl)sulfonyl-4,5-dihydroimidazol-2-yl]-2-methyl-piperazine]",0.689
11,"O=S(=O)(c1ccc(-c2cccc(O)c2)cc1)N1CCN=C1N1CCN(C2CCC2)CC1 [Example 16, 3-[4-[[2-(4-cyclobutylpiperazin-1-yl)-4,5-dihydroimidazol-1-yl]sulfonyl]phenyl]phenol]",0.034
12,"N#Cc1ccc(-c2ccc(S(=O)(=O)N3CCN=C3N3CCN(C4CCC4)CC3)cc2)cc1 [Example 5, 4-[4-[[2-(4-cyclobutylpiperazin-1-yl)-4,5-dihydroimidazol-1-yl]sulfonyl]phenyl]benzonitrile]",0.097
13,"CC1CC(N2CCN(C3=NCCN3S(=O)(=O)c3ccc(C(C)C)cc3)CC2)C1 (stereo not shown) [Example 39, 1-[1-(4-isopropylphenyl)sulfonyl-4,5-dihydroimidazol-2-yl]-4-(3-methylcyclobutyl)piperazine]",0.86
14,"Cc1ccc(C(=O)N2CCN=C2N2CCN(C3CCC3)CC2)cc1 [Example 84, [2-(4-cyclobutylpiperazin-1-yl)-4,5-dihydroimidazol-1-yl]-(p-tolyl)methanone]",2.7
15,"O=S(=O)(c1cccc(C(F)(F)F)c1)N1CCN=C1N1CCN(C2CCC2)CC1 [Example 60, 1-cyclobutyl-4-[1-[3-(trifluoromethyl)phenyl]sulfonyl-4,5-dihydroimidazol-2-yl]-piperazine]",0.278
16,"O=S(=O)(c1ccc(-c2ccncc2)cc1)N1CCN=C1N1CCN(C2CCC2)CC1 [Example 18, 1-cyclobutyl-4-[1-[4-(4-pyridyl)phenyl]sulfonyl-4,5-dihydroimidazol-2-yl]piperazine]",0.095
17,"Cc1cccc(-c2ccc(S(=O)(=O)N3CCN=C3N3CCN(C4CCC4)CC3)cc2)c1 [Example 9, 1-cyclobutyl-4-[1-[4-(m-tolyl)phenyl]sulfonyl-4,5-dihydroimidazol-2-yl]piperazine]",0.074
18,"CCN1CCN(C2=NCCN2S(=O)(=O)c2ccc(Cl)c(Cl)c2)CC1 [Example 69, 1-[1-(3,4-dichlorophenyl)sulfonyl-4,5-dihydroimidazol-2-yl]-4-ethyl-piperazine]",11.5
19,"CCN1CCN(C2=NCCN2S(=O)(=O)c2cnn(CC)c2C)CC1 [Example 119, 1-ethyl-4-[1-(1-ethyl-5-methyl-pyrazol-4-yl)sulfonyl-4,5-dihydroimidazol-2-yl]piperazine]",11.4
20,"CCN1CCN(C2=NCCN2S(=O)(=O)c2ccccc2Cl)CC1 [Example 114, 1-[1-(2-chlorophenyl)sulfonyl-4,5-dihydroimidazol-2-yl]-4-ethyl-piperazine]",2.81

row,SMILES,IC50 [nM]
1,"O=C(c1ccccc1Cl)N1CCN=C1N1CCN(C2CCC2)CC1 [Example 87, (2-chlorophenyl)-[2-(4-cyclobutylpiperazin-1-yl)-4,5-dihydroimidazol-1-yl]methanone]",2.23
2,"O=S(=O)(c1ccc(-c2cccnc2)cc1)N1CCN=C1N1CCN(C2CCC2)CC1 [Example 7, 1-cyclobutyl-4-[1-[4-(3-pyridyl)phenyl]sulfonyl-4,5-dihydroimidazol-2-yl]piperazine]",0.151
3,"O=S(=O)(c1ccc(-c2ccc(O)cc2)cc1)N1CCN=C1N1CCN(C2CCC2)CC1 [Example 17, 4-[4-[[2-(4-cyclobutylpiperazin-1-yl)-4,5-dihydroimidazol-1-yl]sulfonyl]phenyl]phenol]",0.021
4,"O=S(=O)(c1ccc(-c2cccc(F)c2)cc1)N1CCN=C1N1CCN(C2CCC2)CC1 [Example 26, 1-cyclobutyl-4-[1-[4-(3-fluorophenyl)phenyl]sulfonyl-4,5-dihydroimidazol-2-yl]piperazine]",0.138
5,"Cc1ccc(-c2ccc(S(=O)(=O)N3CCN=C3N3CCN(C4CCC4)CC3)cc2)cc1 [Example 10, 1-cyclobutyl-4-[1-[4-(p-tolyl)phenyl]sulfonyl-4,5-dihydroimidazol-2-yl]piperazine]",0.145
6,"CC(=O)Nc1ccc(S(=O)(=O)N2CCN=C2N2CCN(C3CCC3)CC2)cc1 [Example 70, N-[4-[[2-(4-cyclobutylpiperazin-1-yl)-4,5-dihydroimidazol-1-yl]sulfonyl]phenyl]acetamide]",0.094
7,"O=S(=O)(c1ccc(-c2ccc(F)cc2)cc1)N1CCN=C1N1CCN(C2CCC2)CC1 [Example 27, 1-cyclobutyl-4-[1-[4-(4-fluorophenyl)phenyl]sulfonyl-4,5-dihydroimidazol-2-yl]piperazine]",0.071
8,"COc1cccc(-c2ccc(S(=O)(=O)N3CCN=C3N3CCN(C4CCC4)CC3)cc2)c1 [Example 2, 1-cyclobutyl-4-[1-[4-(3-methoxyphenyl)phenyl]sulfonyl-4,5-dihydroimidazol-2-yl]piperazine]",0.098
9,"O=S(=O)(c1ccc(-c2ccsc2)cc1)N1CCN=C1N1CCN(C2CCC2)CC1 [Example 20, 1-cyclobutyl-4-[1-[4-(3-thienyl)phenyl]sulfonyl-4,5-dihydroimidazol-2-yl]piperazine]",0.021
10,"O=S(=O)(c1ccc(-c2ccccc2F)cc1)N1CCN=C1N1CCN(C2CCC2)CC1 [Example 25, 1-cyclobutyl-4-[1-[4-(2-fluorophenyl)phenyl]sulfonyl-4,5-dihydroimidazol-2-yl]piperazine]",0.046
11,"O=C(c1ccccc1)N1CCN=C1N1CCN(C2CCC2)CC1 [Example 82, [2-(4-cyclobutylpiperazin-1-yl)-4,5-dihydroimidazol-1-yl]-phenyl-methanone]",7
12,"O=S(=O)(c1ccc(-c2cccs2)cc1)N1CCN=C1N1CCN(C2CCC2)CC1 [Example 19, 1-cyclobutyl-4-[1-[4-(2-thienyl)phenyl]sulfonyl-4,5-dihydroimidazol-2-yl]piperazine]",0.027
13,"O=S(=O)(c1cccc(C2CC2)c1)N1CCN=C1N1CCN(C2CCC2)CC1 [Example 35, 1-cyclobutyl-4-[1-(3-cyclopropylphenyl)sulfonyl-4,5-dihydroimidazol-2-yl]piperazine]",0.087
14,"CC(C)c1ccc(S(=O)(=O)N2CCN=C2N2C3CCC2CN(C2CCC2)C3)cc1 [Example 48, 3-cyclobutyl-8-[1-(4-isopropylphenyl)sulfonyl-4,5-dihydroimidazol-2-yl]-3,8-diazabicyclo[3.2.1]octane]",1.19
15,"Cn1ccc(-c2ccc(S(=O)(=O)N3CCN=C3N3CCN(C4CCC4)CC3)cc2)n1 [Example 28, 1-cyclobutyl-4-[1-[4-(1-methylpyrazol-3-yl)phenyl]sulfonyl-4,5-dihydroimidazol-2-yl]piperazine]",0.049
16,"Cn1c(=O)oc2cc(S(=O)(=O)N3CCN=C3N3CCN(C4CCC4)CC3)ccc21 [Example 55, 6-[[2-(4-cyclobutylpiperazin-1-yl)-4,5-dihydroimidazol-1-yl]sulfonyl]-3-methyl-1,3-benzoxazol-2-one]",0.36
17,"O=S(=O)(c1ccc(-c2ccccn2)cc1)N1CCN=C1N1CCN(C2CCC2)CC1 [Example 6, 1-cyclobutyl-4-[1-[4-(2-pyridyl)phenyl]sulfonyl-4,5-dihydroimidazol-2-yl]piperazine]",0.102
18,"COc1ccccc1C(=O)N1CCN=C1N1CCN(C2CCC2)CC1 [Example 91, [2-(4-cyclobutylpiperazin-1-yl)-4,5-dihydroimidazol-1-yl]-(2-methoxyphenyl)methanone]",11.5
19,"CCN1CCN(C2=N[C@@H](C)CN2S(=O)(=O)c2ccc(C(C)C)cc2)CC1 [Example 44, (S)-1-ethyl-4-[1-(4-isopropylphenyl)sulfonyl-4-methyl-4,5-dihydroimidazol-2-yl]piperazine]",0.519
20,"O=C(c1cccc(Cl)c1)N1CCN=C1N1CCN(C2CCC2)CC1 [Example 86, (3-chlorophenyl)-[2-(4-cyclobutylpiperazin-1-yl)-4,5-dihydroimidazol-1-yl]methanone]",2.04
